According to patent US20040220164A1, “Triaza compound immunoregulatory agents” (priority 2001, published 2004):
Converted amounts (≈) assume the structure as drawn. Where two headings read alike, the source gives them in different places.

What was measured:
[1] = test system: HHV-7 (KHR strain); assay: Anti-HHV-7 assay in SupT1 cells (antigen expression, flow cytometry, Example 3); assay type: cell-based; settings: SUP-T1; SupT1 cells; read-out: IC50 HHV-7 (50% reduction of HHV-7 antigen expression)
Experimental: For HHV-7, five-fold dilutions of the compounds were added in 500 μl culture medium in 24-well flat bottom plates (Iwaki, Japan), whereupon 2×10^5 SupT1 cells were added in 400 μl culture medium. After 30 min incubation at room temperature, 100 μl of HHV-7 stock was added to each well. HHV-7-infected and mock-infected SupT1 cells were cultured in a final volume of 1 ml medium in the absence of the compounds. On day 4, half of the medium and the cells were replaced and fresh medium without new compound was added. This procedure was repeated every 2 or 3 days. The CPE was checked regularly microscopically. When CPE was observed, the HHV-7 antigen expression was monitored by flow cytometry, as described previously (Zhang, Y. et al. (1999) “Selective activity of various antiviral compounds against HHV-7 infection Antiviral Res. 43, 23-35.)

[2] = test system: HIV-1 strain NL4.3; assay: Anti-HIV-1 assay in MT-4 cells (p24 Ag ELISA, Example 3); assay type: cell-based
Experimental: Antiviral Assays. For HIV-1, MT-4 cells were infected with the HIV-1 strain NL4.3. Briefly, five-fold dilutions of the compounds (in 100 μl) were added to 96-well flat bottom plates (Iwaki, Japan). Then, to each well, 7.5×10^4 MT-4 cells were added in 50 μl medium, followed by 50 μl of diluted HIV-1 stock (strain NL4.3). Cytopathic effect (CPE) induced by the virus was checked regularly microscopically. When strong CPE was observed (after 3 to 5 days of incubation) in untreated HIV-1 infected cells, the supernatant was collected, stored at −20° C. and analyzed for HIV-1 core antigen by p24 Ag ELISA (NEN™, PerkinElmer Life Sciences, Boston, Mass.). Finally, the IC50 value of the compounds (i.e., the concentration of the compound required for 50% reduction of HIV infection as measured by viral p24 antigen level in the supernatant of infected MT-4 cells) was calculated.

[3] = target: T1, CD4 (Homo sapiens, UniProt P01730); assay: CD4 down-modulation, flow cytometry with FITC-conjugated anti-CD4 (SK3) mAb, SupT1 cells; assay type: cell-based; parameters: To study the effect of the CADA derivatives on surface CD4 antigen expression, MT-4 and SupT1 cells were incubated; endogenous in cells; host or cells: MT-4, SupT1, PBMC; settings: day 4, read-out: IC50 CD4 (50% inhibition of extracellular CD4 expression) (converted)
Experimental: (§1) Flow Cytometric Analyses. To study the effect of the CADA derivatives on surface CD4 antigen expression, MT-4 and SupT1 cells were incubated with a serial 5-fold dilution of the compounds (50, 10, 2, 0.4 and 0.08 μg/ml) or medium at 37° C. Cell surface CD4 antigen expression was analyzed at day 3 (MT-4) or day 4 (SupT1). Briefly, after washing with phosphate-buffered saline (PBS) containing 2% fetal calf serum (FCS), cells were incubated with FITC-conjugated anti-CD4 (SK3) mAb for 30 min at 4° C. As a negative control for a specific background staining, cells were stained in parallel with Simultest Control γ1/γ^2a (Becton Dickinson). Then the cells were washed, fixed with 1% formaldehyde and analyzed by flow cytometry in a FACScalibur (Becton Dickinson, San Jose, Calif., USA). Data were acquired and analyzed with CellQuest software (Becton Dickinson). For the calculation of the CD4 receptor expression, the mean fluorescence intensity (MFI) of each sample was expressed as percentage of the MFI of control cells (after subtracting the MFI of the isotype control). Finally, the IC50 value of the compounds (i.e., the concentration of the compound required for 50% inhibition of extracellular CD4 expression) was calculated.

[4] = target: T1, CD4; assay: CD4 down-modulation, flow cytometry with FITC-conjugated anti-CD4 (SK3) mAb, MT-4 cells; assay type: cell-based; parameters: To study the effect of the CADA derivatives on surface CD4 antigen expression, MT-4 and SupT1 cells were incubated; endogenous in cells; host or cells: MT-4, SupT1, PBMC; settings: for IC50: MT-4 cells, day 3, read-out: IC50 CD4 (50% inhibition of extracellular CD4 expression) (converted); for CD4 down-modulating activity compared with CADA or parent analog (in words): structure-activity discussion of Table 5 (MT-4 and SupT1 cells); for CD4 down-modulating activity, fold less active than CADA: compared to CADA, MT-4 cells (stated for some compounds)
Experimental: as §1, with “Cell surface CD4 antigen expression was analyzed at day 3 (MT-4) or day 4 (SupT1).” left out

[5] = Cytotoxicity assay (trypan blue exclusion, propidium iodide); assay type: cell-based, human; settings: human
Experimental: Cytotoxicity Assay. Cellular toxicity of the compounds was measured by trypan blue exclusion and also by Propidium Iodide by flow cytometry after 3 or 4 days of incubation, in parallel with the CD4 antigen expression. The CC50 value of each CADA analog is the concentration (in μg/ml) required to reduce the viability of the cells by 50%.

[6] = target: T1, CD4; assay: Cell surface CD4 expression by flow cytometry (anti-CD4 mAb Leu3a-PE); assay type: cell-based; parameters: To study the effect of the CADA derivatives on surface CD4 antigen expression, MT-4 and SupT1 cells were incubated; endogenous in cells; host or cells: MT-4, SupT1, PBMC; settings: staurosporine together with CADA
Experimental: FIGS. 2A-2C. Surface CD4 expression in MT-4 cell line, SupT1 cell line and PBMCs after incubation with CADA hydrochloride (3.2 or 16 μM) for 1 and 4 days. (A) Cell surface CD4 expression of control MT-4 cells and MT-4 cells treated with CADA (3.2 μM) for 1 day or 4 days. (B) Cell surface CD4 expression of control SupT1 cells and SupT1 cells treated with CADA (3.2 μM) for 1 day or 4 days. (C) Cell surface CD4 expression of control PBMCs and PBMCs treated with CADA (16 μM) for 1 day or 4 days. The cells were stained with anti-CD4 mAb (Leu3a-PE). Percentages of fluorescent cells and MFI (mean fluorescence intensity) are indicated in each histogram.
FIG. 4. Comparison of the effects on CD4 modulation by ATA (24 μM), CADA hydrochloride (16 μM) and PMA (8 nM) in SupT1 cells after incubation with the compounds analyzed after 20 minutes, 4 hours, 1 day and 4 days.
Cells were incubated with CADA hydrochloride and the CD4 expression on the cell surface was analyzed. […] In peripheral blood mononuclear cells (PBMCs), the percentage of CD4 expression decreased to 0.2% after incubation with CADA (16 μM) for 4 days (FIG. 2).
Expression of various other surface antigens was also examined in MT-4 cells, SupT1 cells and PBMCs after incubation with CADA (16 μM) or CADA-free medium at 37° C. for 4 days. After washing with phosphate-buffered saline (PBS) containing 2% FCS(fetal calf serum), the cells were incubated with mAb (as indicated in Table 1) for 20 min at 4° C. Then the cells were washed, fixed with 1% formaldehyde and analyzed by flow cytometry. All mAbs were purchased from Becton-Dickinson (Erembodegem, Belgium).
CADA was compared with ATA and PMA with regard to their down-modulating effects. […] At day 4, the CD4 expression in SupT1 cells treated with CADA reduced to 1.2%.

[7] = Human immunodeficiency virus 1, MT4, MT-4 cells, read-out: IC50 HIV-1 (NL4.3), p24 Ag ELISA
[8] = MT-4 cells, read-out: CC50 (50% cytotoxic concentration)
[9] = SupT1 cells, read-out: CC50 (50% cytotoxic concentration)
[10] = Human immunodeficiency virus 1, MT4 cells, Table 6, unit inferred, read-out: IC50(HIV-1)
[11] = MT-4 cells, MT4 cells, Table 6, unit inferred, read-out: CC50
[12] = SupT1 cells, Table 6, unit inferred, read-out: CC50

Compound	IC50 [1] [µg/mL]	IC50 [2, 7] [µg/mL]	IC50 [3] [µM]	IC50 [4] [µM]	CD4 down-modulating activity compared with CADA or parent analog (in words) [4]	CC50 [5, 8] [µg/mL]	CC50 [5, 9] [µg/mL]	CD4 down-modulating activity, fold less active than CADA [4] [fold]	CD4 down-regulating activity, fold less active than QJ036 ([4]; compared to QJ036) [fold]	IC50 [2, 10] [µg/mL]	CC50 [5, 11] [µg/mL]	CC50 [5, 12] [µg/mL]	effect of PKC blocker on the down-modulation of CD4 with CADA [6]
C=C1CN(S(=O)(=O)c2ccc(C)cc2)CCCN(S(=O)(=O)c2ccc(C)cc2)CCCN(S(=O)(=O)c2ccc(C)cc2)C1 [AS112]	> 50	> 10	> 77.4	> 15.5	negative effect	27.8 (≈ 43 µM)	> 50						
Cc1ccc(S(=O)(=O)N2CCCN(Cc3ccccc3)CCCN(S(=O)(=O)c3ccc(C)cc3)CC(CCl)C2)cc1 [AS117]	0.78 (≈ 1.26 µM)	1.15 (≈ 1.86 µM)	2.41	1.81		30.7 (≈ 49.7 µM)	> 50	3					
C=C1CN(S(=O)(=O)c2ccc(Br)cc2)CCCN(Cc2ccccc2)CCCN(S(=O)(=O)c2ccc(Br)cc2)C1 [AS-PB127]	0.88 (≈ 1.24 µM)	1.4 (≈ 1.97 µM)	2.49	1.98		35.7 (≈ 50.2 µM)	> 50	4					
C=C1CN(S(=O)(=O)c2ccc(C)cc2)CCCN(C(=O)OCC)CCCN(S(=O)(=O)c2ccc(C)cc2)C1 [Compound 95-213]	0.68 (≈ 1.21 µM)	8.05 (≈ 14.3 µM)	17.1	11.5		> 50	> 50						
C=C1CN(S(=O)(=O)c2ccc(C)cc2)CCCN(CC(C)C)CCCN(S(=O)(=O)c2ccc(C)cc2)C1 [Compound 98-035]	0.7 (≈ 1.28 µM)	4.82 (≈ 8.8 µM)	9.73	8.78		> 50	> 50		4				
C=C1CN(S(=O)(=O)c2ccc(C)cc2)CCCN(Cc2ccccn2)CCCN(S(=O)(=O)c2ccc(C)cc2)C1 [Compound 98-037]	> 50	> 50	> 85.8	> 85.8	complete loss of activity	> 50	> 50						
Cc1ccc(S(=O)(=O)N2CCCN(S(=O)(=O)c3ccc(C)cc3)CC(C)(O)CN(S(=O)(=O)c3ccc(C)cc3)CCC2)cc1 [HJC241]	1.09 (≈ 1.64 µM)	> 10	> 75.3	2.86		32 (≈ 48.2 µM)	> 50						
Cc1ccc(S(=O)(=O)N2CCCN(Cc3ccccc3)CCCN(S(=O)(=O)c3ccc(C)cc3)CC(CO)C2)cc1 [HJC321]	1.94 (≈ 3.23 µM)	3.88 (≈ 6.47 µM)	5.28	3.32		26.1 (≈ 43.5 µM)	> 50	6					
C=C1CN(S(=O)(=O)c2ccc(C)cc2)CCCN(Cc2ccccc2)CCCN(S(=O)(=O)c2cccc3c(N(C)C)cccc23)C1 [KKD015, 9-Benzyl-3-methylene-1-(5-dimethylamino-1-naphthalenesulfonyl)-5-p-toluenesulfonyl-1,5,9-triazacyclododecane]										6.7 (≈ 10.1 µM)	> 100	> 100	
C=C1CN(S(=O)(=O)c2ccc(C)cc2)CCCN(CC2CCCCC2)CCCN(S(=O)(=O)c2cccc3c(N(C)C)cccc23)C1 [KKD016, 9-methylcyclohexane-3-methylene-1-(5-dimethylamino-1-naphthalenesulfonyl)-5-p-toluenesulfonyl-1,5,9-triazacyclododecane]										1.15 (≈ 1.72 µM)	61.2 (≈ 91.8 µM)	27.4 (≈ 41.1 µM)	
Cc1ccc(S(=O)(=O)N2CCCN(Cc3ccccc3)CCCN(S(=O)(=O)c3ccc(C)cc3)CC(=O)C2)cc1 [MFS010]	4.43 (≈ 7.59 µM)	> 10	> 85.6	> 17.1	significantly decreased	29.3 (≈ 50.2 µM)	> 50						
CN[C@@H]1C[C@H]2O[C@@](C)([C@@H]1OC)n1c3ccccc3c3c4c(c5c6ccccc6n2c5c31)C(=O)NC4 [staurosporine, reference compound]													did not show any effect
